The assay concerns BDF1 mice, P388 leukemia ip, median survival T/C. The assay can be described thus: NCI In Vivo Anticancer Drug Screen. Data for tumor model P388 Leukemia (intraperitoneal) in B6D2F1 (BDF1) mice. The following applies: endpoint: median survival time, higher = longer survival. The gist of the method:
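Read-out is survival of treated animals expressed relative to the vehicle group, as a T/C ratio.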

Setting [1] is: dose: 6.25 mg/kg/injection, schedule: Q01DX009 (ip), vehicle: water.
The mark [2] stands for this setting: dose: 100.0 mg/kg/injection, schedule: Q04DX003 (ip), vehicle: saline with Tween-80.
Setting [3] is: dose: 25.0 mg/kg/injection, schedule: Q01DX009 (ip), vehicle: saline.
[4] abbreviates: dose: 50.0 mg/kg/injection, schedule: Q01DX009 (ip), vehicle: saline.
Where [5] appears, read: dose: 50.0 mg/kg/injection, schedule: Q04DX003 (ip), vehicle: saline.
Where [6] appears, read: dose: 100.0 mg/kg/injection, schedule: Q04DX003 (ip), vehicle: saline.
Setting [7] is: dose: 50.0 mg/kg/injection, schedule: Q01DX009 (ip), vehicle: saline with Tween-80.
[8] abbreviates: dose: 12.5 mg/kg/injection, schedule: Q01DX009 (ip), vehicle: saline.
[9] abbreviates: dose: 100.0 mg/kg/injection, schedule: Q01DX009 (ip), vehicle: saline with Tween-80.
The mark [10] stands for this setting: dose: 200.0 mg/kg/injection, schedule: Q01DX009 (ip), vehicle: saline with Tween-80.

Several values for one entry are separate records, joined by “and”; a condition that tells them apart may be missing. Identical values can stand only once. Inconclusive results and toxic doses are left out.

The values below come from PubChem BioAssay AID328 (DTP/NCI, 2004).

On to `COc1cccc2c1C(=O)c1c(O)c3c(c(O)c1C2=O)C[C@@](O)(/C(C)=N/NC(=O)c1ccccc1)C[C@@H]3OC1CC(N(C)C)C(O)C(C)O1` (some centres not stated), for which the T/C was 161 % of control (dose: 0.78 mg/kg/injection, schedule: Q01DX009 (ip), vehicle: water); 186 % of control (dose: 1.56 mg/kg/injection, schedule: Q01DX009 (ip), vehicle: water); 236 % of control (dose: 3.13 mg/kg/injection, schedule: Q01DX009 (ip), vehicle: water); 96 % of control under setting [1].
For the compound `Cc1n[nH]c(=S)[nH]c1=S`, the T/C (dose: 25.0 mg/kg/injection, schedule: Q04DX003 (ip), vehicle: saline with Tween-80) was 109 % of control; the T/C (dose: 50.0 mg/kg/injection, schedule: Q04DX003 (ip), vehicle: saline with Tween-80) is 100 % of control; the T/C under setting [2] was 104 % of control.
For the compound `Brc1ccc(Oc2ccccc2)cc1`, the T/C reads like this: under setting [2], 122 % of control; (dose: 266.0 mg/kg/injection, schedule: Q04DX003 (ip), vehicle: saline with Tween-80) 100 % of control; (dose: 400.0 mg/kg/injection, schedule: Q04DX003 (ip), vehicle: saline with Tween-80) 103 % of control; (dose: 600.0 mg/kg/injection, schedule: Q04DX003 (ip), vehicle: saline with Tween-80) 96 % of control.
In the case of `COC(=O)C(Cc1ccccc1)NS(=O)(=O)c1ccc(C)cc1` (configuration not stated), the T/C reads like this: (dose: 12.5 mg/kg/injection, schedule: Q01DX005 (ip), vehicle: saline with Tween-80) 92 % of control; (dose: 25.0 mg/kg/injection, schedule: Q01DX005 (ip), vehicle: saline with Tween-80) 90 % of control; (dose: 50.0 mg/kg/injection, schedule: Q01DX005 (ip), vehicle: saline with Tween-80) 87 % of control and 92 % of control; (dose: 200.0 mg/kg/injection, schedule: Q01DX005 (ip), vehicle: saline with Tween-80) 111 % of control.
For `C[N-]c1nnnn1Cc1ccccc1.[Au+].c1ccc([PH+](c2ccccc2)c2ccccc2)cc1`, the T/C runs as follows: (dose: 25.0 mg/kg/injection, schedule: Q04DX002 (ip), vehicle: saline with Tween-80) 109 % of control; (dose: 50.0 mg/kg/injection, schedule: Q04DX002 (ip), vehicle: saline with Tween-80) 102 % of control; (dose: 100.0 mg/kg/injection, schedule: Q04DX002 (ip), vehicle: saline with Tween-80) 116 % of control.
For the compound `Nc1nc(N)c2c(Cl)c(CNc3ccc(Cl)c(Cl)c3)ccc2n1`, the T/C by setting is: (dose: 6.25 mg/kg/injection, schedule: Q01DX009 (ip), vehicle: saline with Tween-80) 154 % of control; under setting [1], 123 % of control; (dose: 12.5 mg/kg/injection, schedule: Q01DX009 (ip), vehicle: saline with Tween-80) 169 % of control; (dose: 12.5 mg/kg/injection, schedule: Q01DX009 (ip), vehicle: water) 179 % of control; (dose: 25.0 mg/kg/injection, schedule: Q01DX009 (ip), vehicle: water) 203 % of control; (dose: 25.0 mg/kg/injection, schedule: Q04DX003 (ip), vehicle: water) 116 % of control. Moreover, the T/C is 88 % of control (dose: 50.0 mg/kg/injection, schedule: Q01DX009 (ip), vehicle: water); 169 % of control (dose: 50.0 mg/kg/injection, schedule: Q04DX003 (ip), vehicle: water); 153 % of control and 173 % of control (dose: 100.0 mg/kg/injection, schedule: Q04DX003 (ip), vehicle: water); 86 % of control (dose: 300.0 mg/kg/injection, schedule: Q04DX003 (ip), vehicle: water).
With `CC1(O)Cn2c(nc3nccnc32)S1` (configuration not stated), the T/C is 107 % of control under setting [3], 115 % of control under setting [4], 108 % of control under setting [5] and 100 % of control under setting [6].
Turning to `O=C1CC(SC(=S)C2CCCC2=O)C(=O)O1` (configuration not stated), under setting [7], the T/C was 122 % of control.
As to `CC(C)=CC(=O)OC1C2C(C)C(=O)OC2C(O)C(C)C2C=CC(=O)C21C` (configuration not stated), the T/C runs as follows: (dose: 3.12 mg/kg/injection, schedule: Q01DX009 (ip), vehicle: saline) 94 % of control; (dose: 6.25 mg/kg/injection, schedule: Q01DX009 (ip), vehicle: saline) 101 % of control; under setting [8], 103 % of control; under setting [3], 120 % of control; (dose: 50.0 mg/kg/injection, schedule: Q01DX009 (ip), vehicle: Klucel (hydroxypropylcellulose) (HPC)) 118 % of control; under setting [4], 120 % of control.
Regarding `COc1cc(C#N)ccc1O`, the T/C is 100 % of control (dose: 100.0 mg/kg/injection, schedule: Q01DX009 (ip), vehicle: gum acacia); 92 % of control (dose: 100.0 mg/kg/injection, schedule: Q04DX003 (ip), vehicle: gum acacia); 87 % of control (dose: 200.0 mg/kg/injection, schedule: Q01DX009 (ip), vehicle: gum acacia); 88 % of control (dose: 200.0 mg/kg/injection, schedule: Q04DX003 (ip), vehicle: gum acacia).
On to `c1ccc(CCN2CCC3(CC2)COCc2ccccc23)cc1`, for which the T/C reads like this: (dose: 25.0 mg/kg/injection, schedule: Q01DX001 (ip), vehicle: saline with Tween-80) 104 % of control; (dose: 50.0 mg/kg/injection, schedule: Q01DX001 (ip), vehicle: saline with Tween-80) 90 % of control.
`O=C(Nc1ncccn1)C12CC3CC(CC(C3)C1)C2`: the T/C under setting [7] is 88 % of control, the T/C under setting [9] was 96 % of control and the T/C under setting [10] was 93 % of control.
Regarding `CCc1cccc2c(NCCCCCCNc3c4ccccc4nc4c(CC)cccc34)c3ccccc3nc12`, the T/C is, setting by setting: (dose: 0.31 mg/kg/injection, schedule: Q01DX009 (ip), vehicle: lactic acid) 108 % of control; (dose: 0.62 mg/kg/injection, schedule: Q01DX009 (ip), vehicle: lactic acid) 103 % of control; (dose: 5.0 mg/kg/injection, schedule: Q01DX009 (ip), vehicle: lactic acid) 173 % of control.
For `C=CC(C#N)(C=C)C=C`, under setting [7], the T/C is 104 % of control.
In the case of `CC1(C#N)CC(C#N)Nc2ccccc2N1` (configuration not stated), the T/C was 104 % of control (dose: 100.0 mg/kg/injection, schedule: Q01DX001 (ip), vehicle: saline); 91 % of control (dose: 200.0 mg/kg/injection, schedule: Q01DX001 (ip), vehicle: saline); 100 % of control (dose: 400.0 mg/kg/injection, schedule: Q01DX001 (ip), vehicle: saline).
On to `Nc1ncnc2c1ncn2C1CC(CO)C(O)C1O` (configuration not stated), for which the T/C runs as follows: (dose: 6.25 mg/kg/injection, schedule: Q01DX009 (ip), vehicle: carboxymethylcellulose (CMC)) 100 % of control; (dose: 12.5 mg/kg/injection, schedule: Q01DX009 (ip), vehicle: carboxymethylcellulose (CMC)) 95 % of control.
For the compound `Nc1ccc(C(=O)Nc2ccc(N(CCCl)CCCl)cc2)cc1`, the T/C was 108 % of control under setting [8]; 152 % of control (dose: 25.0 mg/kg/injection, schedule: Q04DX003 (ip), vehicle: saline); 173 % of control under setting [4]; 216 % of control under setting [5]; 170 % of control (dose: 100.0 mg/kg/injection, schedule: Q01DX009 (ip), vehicle: saline); 92 % of control (dose: 150.0 mg/kg/injection, schedule: Q01DX009 (ip), vehicle: saline).
As to `S=c1nc[nH]c2c1ncn2C1CCCO1` (configuration not stated), the T/C by setting is: under setting [7], 95 % of control; under setting [9], 118 % of control.
Consider `O=C(/C=C/c1ccc(OCc2ccccc2)cc1)c1cccc(Br)c1`, for which the T/C runs as follows: under setting [7], 89 % of control; under setting [9], 100 % of control; under setting [10], 91 % of control.
Consider `CCCC[N+](CCCC)(CCCC)CCCC.Cc1ccc([SH2+])c([SH2+])c1.Cc1ccc([SH2+])c([SH2+])c1.[Ni+3]`, for which the T/C runs as follows: (dose: 100.0 mg/kg/injection, schedule: Q01DX001 (ip), vehicle: other) 112 % of control; (dose: 100.0 mg/kg/injection, schedule: Q04DX003 (ip), vehicle: Klucel (hydroxypropylcellulose) (HPC)) 109 % of control; under setting [6], 115 % of control; (dose: 200.0 mg/kg/injection, schedule: Q01DX001 (ip), vehicle: other) 112 % of control; (dose: 200.0 mg/kg/injection, schedule: Q04DX003 (ip), vehicle: Klucel (hydroxypropylcellulose) (HPC)) 118 % of control; (dose: 200.0 mg/kg/injection, schedule: Q04DX003 (ip), vehicle: saline) 115 % of control. In addition, the T/C is 116 % of control (dose: 265.0 mg/kg/injection, schedule: Q04DX003 (ip), vehicle: Klucel (hydroxypropylcellulose) (HPC)); 112 % of control (dose: 400.0 mg/kg/injection, schedule: Q01DX001 (ip), vehicle: other); 112 % of control (dose: 400.0 mg/kg/injection, schedule: Q04DX003 (ip), vehicle: Klucel (hydroxypropylcellulose) (HPC)).
